Data as given in US9951077B2, “Aminopyridazinone compounds as protein kinase inhibitors” (ETERNITY BIOSCIENCE INC., priority 2014, dated 2018).

Target: Btk (Homo sapiens (Human), UniProt Q06187)
Assay: Btk kinase assay (ADP-Glo)
Type: biochemical
Details: ATP 1.2 μM, 60 minutes, room temperature; read-out: BTK enzyme IC50
In short: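 Recombinant human Btk (2 ng/μl) with poly GT peptide (0.3 μM), ATP (1.2 μM), MnCl2 (1.4 mM) and DTT (40 nM), 60 min at room temperature (22±1° C.). ADP formed was read by ADP-Glo luminescence after ATP depletion. IC50 from log concentration versus percent inhibition relative to DMSO vehicle.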

Chain of Btk (Q06187 whole entry): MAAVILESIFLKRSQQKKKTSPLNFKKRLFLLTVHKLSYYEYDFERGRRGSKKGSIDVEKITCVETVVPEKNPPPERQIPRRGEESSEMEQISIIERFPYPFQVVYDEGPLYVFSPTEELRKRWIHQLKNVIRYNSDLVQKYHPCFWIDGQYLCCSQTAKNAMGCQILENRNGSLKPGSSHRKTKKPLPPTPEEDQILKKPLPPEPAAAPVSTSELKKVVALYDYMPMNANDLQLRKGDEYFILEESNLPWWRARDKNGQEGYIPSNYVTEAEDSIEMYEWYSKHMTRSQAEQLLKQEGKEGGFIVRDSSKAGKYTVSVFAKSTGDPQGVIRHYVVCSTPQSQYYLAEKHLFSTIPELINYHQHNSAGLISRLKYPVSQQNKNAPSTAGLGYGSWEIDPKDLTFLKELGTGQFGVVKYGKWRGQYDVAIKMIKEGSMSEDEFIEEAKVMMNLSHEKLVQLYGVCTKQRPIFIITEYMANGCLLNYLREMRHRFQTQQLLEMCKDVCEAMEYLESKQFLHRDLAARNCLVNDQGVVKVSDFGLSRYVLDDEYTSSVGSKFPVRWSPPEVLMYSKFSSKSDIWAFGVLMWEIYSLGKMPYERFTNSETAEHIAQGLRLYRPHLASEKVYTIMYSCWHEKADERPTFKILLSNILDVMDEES

Row | Structure (SMILES) | IC50 [nM]
1 | C/C=C/C(=O)N1CCC[C@@H](n2cc(-c3ccc(Oc4ccccc4)cc3)c3c(N)n[nH]c(=O)c32)C1 [Example 25, 4-amino-1-[(3R)-1-[(E)-but-2-enoyl]-3-piperidyl]-3-(4-phenoxyphenyl)-6H-pyrrolo[2,3-d]pyridazin-7-one] | 10 to 1000
2 | Nc1n[nH]c(=O)c2c1c(-c1ccc(Oc3ccccc3)cc1)cn2[C@@H]1CCCN(C(=O)/C=C/CN2CCCC2)C1 [Example 34, 4-amino-3-(4-phenoxyphenyl)-1-[(3R)-1-[(E)-4-pyrrolidin-1-ylbut-2-enoyl]-3-piperidyl]-6H-pyrrolo[2,3-d]pyridazin-7-one] | ≤ 10
3 | CC#CC(=O)N[C@H]1CC[C@@H](n2cc(-c3ccc(Oc4ccccc4F)cc3)c3c(N)n[nH]c(=O)c32)CC1 [Example 102, N-((1s,4s)-4-(4-amino-3-(4-(2-fluorophenoxy)phenyl)-7-oxo-6,7-dihydro-1H-pyrrolo[2,3-d]pyridazin-1-yl)cyclohexyl)but-2-ynamide] | 10 to 1000
4 | C=CC(=O)N1CCCC(n2cc(-c3ccc(Oc4cccc(F)c4)cc3)c3c(N)n[nH]c(=O)c32)C1 (stereo not drawn) [Example 62, 1-(1-acryloylpiperidin-3-yl)-4-amino-3-(4-(3-fluorophenoxy)phenyl)-1H-pyrrolo[2,3-d]pyridazin-7(6H)-one] | 10 to 1000
5 | C=CC(=O)N1CCC(Cn2cc(-c3ccc(Oc4ccccc4)cc3)c3c(N)n[nH]c(=O)c32)CC1 [Example 10, 4-amino-3-(4-phenoxyphenyl)-1-[(1-prop-2-enoyl-4-piperidyl)methyl]-6H-pyrrolo[2,3-d]pyridazin-7-one] | 10 to 1000
6 | CC#CC(=O)N1CC[C@@H](n2cc(-c3ccc(Oc4ccccc4F)cc3)c3c(N)n[nH]c(=O)c32)C1 [Example 95, (R)-4-amino-1-(1-(but-2-ynoyl)pyrrolidin-3-yl)-3-(4-(2-fluorophenoxy)phenyl)-1H-pyrrolo[2,3-d]pyridazin-7(6H)-one] | 10 to 1000
7 | C=CC(=O)N1CC(n2cc(-c3ccc(Oc4ccccc4)cc3)c3c(N)n[nH]c(=O)c32)C1 [Example 5, 4-amino-3-(4-phenoxyphenyl)-1-(1-prop-2-enoylazetidin-3-yl)-6H-pyrrolo[2,3-d]pyridazin-7-one] | 10 to 1000
8 | CCN(C/C=C/C(=O)N1CCC[C@@H](n2cc(-c3ccc(Oc4ccccc4)cc3)c3c(N)n[nH]c(=O)c32)C1)C1CC1 [Example 30, 4-amino-1-[(3R)-1-[(E)-4-[cyclopropyl(ethyl)amino]but-2-enoyl]-3-piperidyl]-3-(4-phenoxyphenyl)-6H-pyrrolo[2,3-d]pyridazin-7-one] | 10 to 1000
9 | CN(C)C/C=C/C(=O)N1CCC[C@@H](n2cc(-c3ccc(Oc4ccccc4)cc3)c3c(N)n[nH]c(=O)c32)C1 [Example 26, 4-amino-1-[(3R)-1-[(E)-4-(dimethylamino)but-2-enoyl]-3-piperidyl]-3-(4-phenoxyphenyl)-6H-pyrrolo[2,3-d]pyridazin-7-one] | ≤ 10
10 | C=CC(=O)NC1C2CCC1CC(n1cc(-c3ccc(Oc4ccccc4)cc3)c3c(N)n[nH]c(=O)c31)C2 (stereo not drawn) [Example 15, N-(3-(4-amino-7-oxo-3-(4-phenoxyphenyl)-6,7-dihydro-1H-pyrrolo[2,3-d]pyridazin-1-yl)bicyclo[3.2.1]octan-8-yl)acrylamide] | 10 to 1000
11 | C=CC(=O)N1C[C@H](n2cc(-c3ccc(Oc4ccccc4)cc3)c3c(N)n[nH]c(=O)c32)CC(F)(F)C1 [Example 14, (R)-1-(1-acryloyl-5,5-difluoropiperidin-3-yl)-4-amino-3-(4-phenoxyphenyl)-1H-pyrrolo[2,3-d]pyridazin-7(6H)-one] | ≤ 10
12 | CC#CC(=O)NC1CCC(n2cc(-c3ccc(Oc4ccccc4F)cc3)c3c(N)n[nH]c(=O)c32)C1 (stereo not drawn) [Example 100, N-(3-(4-amino-3-(4-(2-fluorophenoxy)phenyl)-7-oxo-6,7-dihydro-1H-pyrrolo[2,3-d]pyridazin-1-yl)cyclopentyl)but-2-ynamide] | 10 to 1000
13 | C=CC(=O)N1CCCC(n2cc(-c3ccc(Oc4ccc(F)cc4)cc3)c3c(N)n[nH]c(=O)c32)C1 (stereo not drawn) [Example 60, 1-(1-acryloylpiperidin-3-yl)-4-amino-3-(4-(4-fluorophenoxy)phenyl)-1H-pyrrolo[2,3-d]pyridazin-7(6H)-one] | 10 to 1000
14 | CN(C)C/C=C/C(=O)N1CCC[C@@H](n2cc(-c3ccc(Oc4c(F)cccc4F)cc3)c3c(N)n[nH]c(=O)c32)C1 [Example 59, 4-amino-3-[4-(2,6-difluorophenoxy)phenyl]-1-[(3R)-1-[(E)-4-(dimethylamino)but-2-enoyl]-3-piperidyl]-6H-pyrrolo[2,3-d]pyridazin-7-one] | 10 to 1000
15 | N#CN1CC[C@@H](n2cc(-c3ccc(Oc4ccccc4)cc3)c3c(N)n[nH]c(=O)c32)C1 [Example 107, (R)-3-(4-amino-7-oxo-3-(4-phenoxyphenyl)-6,7-dihydro-1H-pyrrolo[2,3-d]pyridazin-1-yl)pyrrolidine-1-carbonitrile] | ≤ 10
16 | C=CC(=O)N1CCC[C@@H](n2nc(-c3ccc(Oc4ccccc4F)cc3)c3c(N)n[nH]c(=O)c32)C1 [Example 109, (R)-1-(1-acryloylpiperidin-3-yl)-4-amino-3-(4-(2-fluorophenoxy)phenyl)-1H-pyrazolo[3,4-d]pyridazin-7(6H)-one] | 10 to 1000
17 | C=CC(=O)Nc1ccc(-n2cc(-c3ccc(Oc4ccccc4)cc3)c3c(N)n[nH]c(=O)c32)cc1 [Example 90, N-(4-(4-amino-7-oxo-3-(4-phenoxyphenyl)-6,7-dihydro-1H-pyrrolo[2,3-d]pyridazin-1-yl)phenyl)acrylamide] | 10 to 1000
18 | CN(C)C/C=C/C(=O)N1CCCC(n2cc(-c3ccc(Oc4ccc(Cl)cc4)cc3)c3c(N)n[nH]c(=O)c32)C1 (stereo not drawn) [Example 65, 4-amino-3-[4-(4-chlorophenoxy)phenyl]-1-[1-[(E)-4-(dimethylamino)but-2-enoyl]-3-piperidyl]-6H-pyrrolo[2,3-d]pyridazin-7-one] | 10 to 1000
19 | C/C=C/C(=O)N1CCC[C@@H](n2cc(-c3ccc(Oc4c(F)cccc4F)cc3)c3c(N)n[nH]c(=O)c32)C1 [Example 116, 4-amino-3-[4-(2,6-difluorophenoxy)phenyl]-1-[(3R)-1-[(E)-but-2-enoyl]-3-piperidyl]-6H-pyrrolo[2,3-d]pyridazin-7-one] | 10 to 1000
20 | CN(C)C/C=C/C(=O)N1CCC(Cn2cc(-c3ccc(Oc4ccccc4)cc3)c3c(N)n[nH]c(=O)c32)C1 (stereo not drawn) [Example 43, 4-amino-1-[[1-[(E)-4-(dimethylamino)but-2-enoyl]pyrrolidin-3-yl]methyl]-3-(4-phenoxyphenyl)-6H-pyrrolo[2,3-d]pyridazin-7-one] | 10 to 1000
21 | N#CN1CCC[C@@H](n2cc(-c3ccc(Oc4c(F)cccc4F)cc3)c3c(N)n[nH]c(=O)c32)C1 [Example 84, (R)-3-(4-amino-3-(4-(2,6-difluorophenoxy)phenyl)-7-oxo-6,7-dihydro-1H-pyrrolo[2,3-d]pyridazin-1-yl)piperidine-1-carbonitrile] | 10 to 1000
22 | C=CC(=O)N1CCC[C@@H](n2cc(-c3ccc(Oc4ccccc4)cc3F)c3c(N)n[nH]c(=O)c32)C1 [Example 76, (R)-1-(1-acryloylpiperidin-3-yl)-4-amino-3-(2-fluoro-4-phenoxyphenyl)-1H-pyrrolo[2,3-d]pyridazin-7(6H)-one] | 10 to 1000
23 | Nc1n[nH]c(=O)c2c1c(-c1ccc(Oc3ccccc3)cc1)cn2[C@@H]1CCCN(C(=O)C2CC2)C1 [Example 23, 4-amino-1-[(3R)-1-(cyclopropanecarbonyl)-3-piperidyl]-3-(4-phenoxyphenyl)-6H-pyrrolo[2,3-d]pyridazin-7-one] | 10 to 1000
24 | N#C/C(=C\C1CC1)C(=O)N1CCC[C@@H](n2cc(-c3ccc(Oc4ccccc4)cc3)c3c(N)n[nH]c(=O)c32)C1 [Example 50, (E)-2-[(3R)-3-[4-amino-7-oxo-3-(4-phenoxyphenyl)-6H-pyrrolo[2,3-d]pyridazin-1-yl]piperidine-1-carbonyl]-3-cyclopropyl-prop-2-enenitrile] | 10 to 1000
25 | CN(C)C/C=C/C(=O)N1CCCC(n2cc(-c3ccc(Oc4ccccc4)cc3)c3c(N)n[nH]c(=O)c32)C1 (stereo not drawn) [Example 38, 4-amino-1-[1-[(E)-4-(dimethylamino)but-2-enoyl]-3-piperidyl]-3-(4-phenoxyphenyl)-6H-pyrrolo[2,3-d]pyridazin-7-one] | ≤ 10
26 | COc1ccc(-c2cn(C3CCCN(C(=O)/C=C/CN(C)C)C3)c3c(=O)[nH]nc(N)c23)cc1 (stereo not drawn) [Example 52, 4-amino-1-[1-[(E)-4-(dimethylamino)but-2-enoyl]-3-piperidyl]-3-(4-methoxyphenyl)-6H-pyrrolo[2,3-d]pyridazin-7-one] | ≤ 10
27 | CN(C)C/C=C/C(=O)N1C[C@H](n2cc(-c3ccc(Oc4ccccc4)cc3)c3c(N)n[nH]c(=O)c32)CC(F)(F)C1 [Example 49, 4-amino-1-[(3R)-1-[(E)-4-(dimethylamino)but-2-enoyl]-5,5-difluoro-3-piperidyl]-3-(4-phenoxyphenyl)-6H-pyrrolo[2,3-d]pyridazin-7-one] | 10 to 1000
28 | C=CC(=O)N[C@H]1CC[C@@H](n2cc(-c3ccc(Oc4ccccc4F)cc3)c3c(N)n[nH]c(=O)c32)CC1 [Example 104, N-((1s,4s)-4-(4-amino-3-(4-(2-fluorophenoxy)phenyl)-7-oxo-6,7-dihydro-1H-pyrrolo[2,3-d]pyridazin-1-yl)cyclohexyl)acrylamide] | 10 to 1000
29 | N#CN1CCC[C@@H](n2cc(-c3ccc(Oc4ccccc4)cc3)c3c(N)n[nH]c(=O)c32)C1 [Example 20, (R)-3-(4-amino-7-oxo-3-(4-phenoxyphenyl)-6,7-dihydro-1H-pyrrolo[2,3-d]pyridazin-1-yl)piperidine-1-carbonitrile] | 10 to 1000
30 | C=CC(=O)N1CC[C@@H](n2cc(-c3ccc(Oc4ccccc4)cc3)c3c(N)n[nH]c(=O)c32)C1 [Example 4, 4-amino-3-(4-phenoxyphenyl)-1-[(3R)-1-prop-2-enoylpyrrolidin-3-yl]-6H-pyrrolo[2,3-d]pyridazin-7-one] | 10 to 1000
